Measurements as given in patent publication US10787423B2, “Piperazine and piperidine derivatives, their synthesis and use thereof in inhibiting VDAC oligomerization, apoptosis and mitochondria dysfunction” (THE NATIONAL INSTITUTE FOR BIOTECHNOLOGY IN THE NEGEV LTD., priority 2015, dated 2020).

Columns and labels:
purified rat VDAC1 = molecular target: T1, purified rat VDAC1 (Rattus norvegicus, UniProt Q9Z2L0); test: VDAC1 channel conductance in planar lipid bilayer; format: biochemical; conditions: for IC50 / Max Inhibition (maximal reduction in channel conductance): planar lipid bilayer, measured at +10 mV and −10 mV
T1 construct: from tissue; host or cells: rat liver mitochondria
Excerpt: The direct interaction between VDAC and the compounds of general Formulae (I), (Ia), (Ib), (Ic), (Id), (II) and (IIa), especially the specific compounds of Formulae 1, 2, 3, 10 and 11, may be measured by assessing VDAC channel conductance, following its reconstitution into a planar lipid bilayer (PLB). The compounds of the general Formulae (I), (Ia), (Ib), (Ic), (Id), (II) and (IIa), interact with VDAC and reduce its channel conductance. To obtain quantitative parameters of this interaction and derive a dissociation constant, e.g. a microscale thermophoresis (MST) interaction assay may be performed. In this manner, dissociation values are derived from the curves showing the affinity of the compounds of the invention to VDAC.
Briefly, rat liver mitochondria (5 mg/ml) in 10 mM Tris-HCl, pH 7.2, were incubated with 2% LDAO at 0° C. for 20 min, followed by centrifugation (30 min, 14,000 g) and the obtained supernatant was loaded onto a dry celite:hydroxyapatite (2:1) column. VDAC1 was eluted with a solution containing 2% LDAO, 10 mM Tris-HCl, pH 7.2, 50 mM NaCl, and 20 to 22 mM NaH2PO4, with VDAC1 detection by Coomassie blue staining. The VDAC1-containing fractions were dialyzed against 10 mM Tris-HCl, pH 7.2, and subjected to a second chromatography step on a carboxymethyl-cellulose (CMC) column from which VDAC1 was eluted with a solution containing 10 mM Tris-HCl, pH 7.2, 0.1% LDAO and 500 mM NaCl, detected as above. The VDAC1-containing fractions were collected and used for VDAC1 channel conductance and MST assays.
The reconstitution of purified rat VDAC1 into a planar lipid bilayer (PLB) and subsequent single and multiple channel current recordings and data analysis were carried out as follows. Briefly, the PLB was prepared from soybean asolectin dissolved in n-decane (30 mg/ml). Purified VDAC1 (1 ng) was added to the chamber defined as the cis side containing 1 M NaCl, 10 mM Hepes, pH 7.4. Currents were recorded under voltage-clamp using a Bilayer Clamp BC-535B amplifier (Warner Instrument, Hamden, Conn.). The currents, measured with respect to the trans side of the membrane (ground), were low-pass-filtered at 1 kHz and digitized online using a Digidata1440-interface board and pClampex 10.2 software (Axon Instruments, Union City, Calif.).
VDAC1 was purified as described above in Methods (VDAC1 purification). Purified VDAC1 was reconstituted into a planar lipid bilayer (PLB) membrane and currents through VDAC1, in response to a voltage steps from 0 to +10 mV, from 0 to −10 mV, from 0 to +40 mV, and from 0 to −40 mV, were recorded before and 15 min after the addition of 20 μM of the compound of Formula 3 (VBIT-12).
Solid circles indicate conductance without VBIT-12, open circles with 20 μM VBIT-12.
Further, the VDAC1 channel conductance was measured with the increasing concentrations of VBIT-12, or of compound of Formula 1 (VBIT-4). Concentration dependence of VBIT-12 reducing VDAC1 channel conductance was measured at +10 my and at −10 mV.

HeLa cells = test: Selenite-induced cell death in HeLa cells, PI staining and flow cytometry; format: cell-based
Protocol: Cells, e.g. HeLa cells (2×10^5), untreated or treated with apoptosis-inducing reagents, were analyzed for apoptotic cell death using PI, annexin V-FITC and flow cytometer analysis. Cells were collected (1500×g for 10 min), washed, and resuspended in 200 μl binding buffer (10 mM HEPES/NaOH, pH 7.4, 140 mM NaCl, and 2.5 mM CaCl2). Annexin V-FITC was added according to the recommended Protocol (Enzo Life Sciences, Switzerland), and the cells were incubated in the dark for 15 min. Cells were then washed with binding buffer and resuspended in 200 μl binding buffer, to which PI was added immediately before flow cytometry analysis. At least 10,000 events were collected, recorded on a dot plot, and analyzed by the FACSCalibur™ flow cytometer software (BD Biosciences, Franklin Lakes, N.J.).
HeLa cells were incubated with varying concentrations (2-20 μM) of racemic compound of Formula 1 (VBIT-4) and of the enantiomers of compound of Formula 1 (VBIT-4-1 and VBIT-4-2) for 1 hour, and then with or without selenite (25 μM, 3 hours). Cells were harvested and assayed for apoptotic cell death, using PI staining and FACS analysis. The results shown in the FIG. 14b correspond to means±SD (n=3).
Cells (2.5 mg/ml) were washed with and resuspended in PBS, pH 8.3 and incubated with membrane-permeable cross-linker EGS (250 μM) at 30° C. for 15 min and then subjected to SDS-PAGE and immunoblotting using anti-VDAC1 antibodies. Several anti-VDAC1 antibody-labeled protein bands were obtained upon exposure to the apoptosis stimuli that are correspond to VDAC1 dimers, trimers, tetramers and multimers. Cell death as induced by selenite and inhibited by the compound of Formula 3 (VBIT-12) or compound of Formula 11 (DIV00781) is shown (FIG. 21B), with closed circles corresponding to the compound of Formula 3 and open circles corresponding to the compound of Formula 11. Cell death was analyzed using propidium iodide (PI) staining and flow cytometry.

T1 sequence (Q9Z2L0 whole entry): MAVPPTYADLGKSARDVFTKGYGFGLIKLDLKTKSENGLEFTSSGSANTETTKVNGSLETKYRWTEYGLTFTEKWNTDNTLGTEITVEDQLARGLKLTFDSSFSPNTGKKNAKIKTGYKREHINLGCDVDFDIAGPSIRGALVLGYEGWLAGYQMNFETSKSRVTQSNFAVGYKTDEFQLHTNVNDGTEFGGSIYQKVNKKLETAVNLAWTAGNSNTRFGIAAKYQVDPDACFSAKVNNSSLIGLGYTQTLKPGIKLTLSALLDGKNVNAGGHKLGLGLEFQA

Row | Compound | IC50 (purified rat VDAC1) [µM] | Max Inhibition (maximal reduction in channel conductance) (purified rat VDAC1) [%] | apoptotic cell death (HeLa cells; 2-20 μM 1 hour, then selenite 25 μM 3 hours) | decrease in maximal channel conductance relative to VBIT-4 (purified rat VDAC1) | VDAC1 conductance in multi-channel experiments as function of voltage (purified rat VDAC1; 20 μM) | VDAC1 channel conductance (purified rat VDAC1; 20 μM, 15 min after addition, voltage steps 0 to ±10 mV and ±40 mV) | affinity to VDAC1 relative to VBIT-4 (purified rat VDAC1; from concentration dependence of channel conductance) | cell death as induced by selenite (HeLa cells; 22 h with selenite 8 μM and increasing concentrations)
1 | O=C(CC(CO)N1CCN(c2ccc(OC(F)(F)F)cc2)CC1)Nc1ccc(Cl)cc1 (racemic) [Formula 1, N-(4-chlorophenyl)-4-hydroxy-3-(4-(4-(trifluoromethoxy)phenyl)-piperazin-1-yl)butanamide] | 15 | 50 | Inhibit Apoptotic Cell Death |  |  |  |  | 
2 | O=C(O)CNC(=O)C1(Nc2ccccc2)CCN(Cc2cccc3ccccc23)CC1 [Formula 3] | 5 | 80 |  | higher decrease in the maximal channel conductance | stabilizing VDAC1 at a low conductance state at all voltages tested | Channel conductance was reduced and the channel was stabilized in a low conducting state | higher affinity than VBIT-4 | inhibited
